“Also recorded” adds a separate entry of the source. Marks after values point to notes of the source that are not given here.
Experiments:
[1] = target: T1, breast cancer resistance protein (BCRP) (Homo sapiens, UniProt Q9UNQ0); test: BCRP transporter inhibition in vitro; type: in vitro ADME; conditions: unpublished data
T1 sequence (Q9UNQ0 1-655): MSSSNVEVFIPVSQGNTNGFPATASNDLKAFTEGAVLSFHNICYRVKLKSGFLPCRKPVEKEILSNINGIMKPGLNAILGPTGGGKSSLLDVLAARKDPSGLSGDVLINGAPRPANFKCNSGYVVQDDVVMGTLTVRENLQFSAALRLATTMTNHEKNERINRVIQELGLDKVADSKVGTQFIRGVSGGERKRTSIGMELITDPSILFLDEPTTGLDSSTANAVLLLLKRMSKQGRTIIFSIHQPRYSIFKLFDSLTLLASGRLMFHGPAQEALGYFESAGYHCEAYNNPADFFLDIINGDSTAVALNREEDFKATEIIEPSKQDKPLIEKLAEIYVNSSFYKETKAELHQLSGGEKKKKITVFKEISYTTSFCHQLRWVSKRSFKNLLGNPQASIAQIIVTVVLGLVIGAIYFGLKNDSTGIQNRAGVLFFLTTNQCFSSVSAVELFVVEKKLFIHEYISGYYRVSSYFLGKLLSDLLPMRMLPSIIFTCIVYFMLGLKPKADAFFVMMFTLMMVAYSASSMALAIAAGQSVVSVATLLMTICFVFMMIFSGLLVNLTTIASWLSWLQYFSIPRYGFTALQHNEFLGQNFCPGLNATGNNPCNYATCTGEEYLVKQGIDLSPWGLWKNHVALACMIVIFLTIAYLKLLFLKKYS

[2] = system: CYP2C19; conditions: in vitro; read-out: IC50, CYP2C19 inhibition; cited from earlier work
[3] = Phase 1 crossover study: AZD5718 plasma pharmacokinetics; type: in vivo, human; conditions: for AUC(0-inf) / AUC(0-t) / half-life / Tmax / Cmax: human, plasma, oral; for AUC(0-inf): AZD5718 AUC0-inf; for AUC(0-t): AZD5718 AUC0-last; for half-life: AZD5718 t1/2 lambda z; for Tmax: AZD5718 tmax, median (range); for Cmax: AZD5718 Cmax
Description: The primary objective was to evaluate the pharmacokinetics of oral rosuvastatin when administered alone and in combination with oral AZD5718. […] Each participant received 5 single-dose oral study treatments (A-E), with a minimum washout period of 7 days between each treatment period. Participants were randomly assigned to treatments in the order A, B, C, D, E or B, A, C, D, E. Treatments were: […] […] Participants fasted for at least 10 hours before treatment and for at least 4 hours after treatment. Participants receiving treatment E consumed a high-fat breakfast 30 minutes before treatment. Water was permitted as desired except within 1 hour of administration. […] Doses were taken with 240 mL of water. […] At a minimum, each analytical run included a calibration curve, a matrix blank, a control zero sample (matrix blank containing internal standard), a reagent blank, and duplicate quality control samples at 3 concentrations within the calibration range. […] Both assessments were well within the acceptance criteria. […] The pharmacokinetic analysis set for rosuvastatin included all participants who received both rosuvastatin treatments. […] Statistical analyses were performed by […] using SAS version 9.4. Rosuvastatin pharmacokinetics were analyzed using a mixed-effects model, with log-transformed AUC, AUC0-last, and Cmax as the response variables; treatment sequence, period, and treatment as fixed effects; and participant nested within treatment sequence as a random effect. […] LS mean differences and 90%CIs for the effect of formulation or food for log-transformed variables were back transformed to geometric mean ratios and presented as percentages with 90% CIs.

[4] = system: CYP2C9; conditions: in vitro; read-out: IC50, CYP2C9 inhibition; cited from earlier work
[5] = system: healthy volunteers; test: Phase 1 crossover study: safety and tolerability (adverse events); type: in vivo, human
Description: Each participant received 5 single‐dose oral study treatments (A‐E), with a minimum washout period of 7 days between each treatment period.
The safety set included all participants who received treatment in the study and for whom any postdose safety data were available. Safety was assessed throughout the study by monitoring adverse events, vital signs (systolic and diastolic blood pressure, pulse rate, and body temperature), and electrocardiographic parameters and by conducting physical examinations and laboratory assessments (hematology, blood chemistry, and urinalysis).

[6] = system: CYP3A4; conditions: in vitro; read-out: IC50, CYP3A4 inhibition; cited from earlier work
[7] = healthy volunteers, cited from earlier work
[8] = system: CYP3A4 and CYP3A5; conditions: in vitro; UGT 1A1, 1A3, 1A4 glucuronidation also contributes; cited from earlier work
[9] = system: leukotriene B4 production in human leukocytes; conditions: in vitro; cited from earlier work
[10] = 200 mg suspension, fasted, n = 10
[11] = 200 mg tablet plus rosuvastatin 10 mg, fasted, n = 12
[12] = 200 mg, arithmetic mean (SD), 200 mg suspension, fasted, n = 10
[13] = 200 mg, arithmetic mean (SD), 200 mg tablet, fasted, n = 10
[14] = 200 mg, arithmetic mean (SD), 200 mg tablet, fed, n = 12
[15] = 200 mg, geometric mean (%CV), 200 mg suspension, fasted, n = 10
[16] = 200 mg, geometric mean (%CV), 200 mg tablet, fasted, n = 10
[17] = 200 mg, geometric mean (%CV), 200 mg tablet, fed, n = 12
[18] = arithmetic mean (SD), 200 mg tablet plus rosuvastatin 10 mg, fasted, n = 12
[19] = geometric mean (%CV), 200 mg tablet plus rosuvastatin 10 mg, fasted, n = 12
[20] = male, 200 mg, geometric mean (%CV), 200 mg suspension, fasted, n = 12
[21] = male, 200 mg, geometric mean (%CV), 200 mg tablet, fasted, n = 12
[22] = male, 200 mg, geometric mean (%CV), 200 mg tablet, fed, n = 12
[23] = male, geometric mean (%CV), 200 mg tablet plus rosuvastatin 10 mg, fasted, n = 12
[24] = tablets after high-fat breakfast relative to fasting

Cc1cc(-c2ccc(C(=O)[C@@H]3CCCC[C@H]3C(=O)Nc3cnn4c3C(=O)NCC4)cc2)n[nH]1 [AZD5718]
IC50 [1]: 20 µM | IC50 [2]: > 20 µM | AZD5718 CL/F, arithmetic mean (SD) [3, 10]: 93.55 (20.40) ^a L/h | AZD5718 CL/F, geometric mean (%CV) [3, 10]: 91.5 (22.2) ^a L/h | AZD5718 CL/F, arithmetic mean (SD) [3, 11]: 127.6 (28.12) L/h | AZD5718 CL/F, geometric mean (%CV) [3, 11]: 124.6 (22.6) L/h | AZD5718 Cmax, ratio of geometric LS means ([3]; 200 mg tablet vs oral suspension, fasted, 90% CI 36%-57%): 45% | AZD5718 AUC0-inf (relative bioavailability), geometric LS mean ratio ([3]; 200 mg tablet vs oral suspension, fasted, 90% CI 64%-80%): 72% | AZD5718 CL/F, arithmetic mean (SD) ([3]; 200 mg tablet, fasted, n = 10): 128.1 (25.63) ^a L/h | AZD5718 CL/F, geometric mean (%CV) ([3]; 200 mg tablet, fasted, n = 10): 126.0 (20.1) ^a L/h | AZD5718 AUC0-inf (relative bioavailability), geometric LS mean ratio ([3]; 200 mg tablet, fed (high-fat breakfast) vs fasted, 90% CI 87%-106%): 96% | AZD5718 Cmax, geometric LS mean ratio ([3]; 200 mg tablet, fed vs fasted, 90% CI 63%-95%): 77% | AZD5718 CL/F, arithmetic mean (SD) ([3]; 200 mg tablet, fed, n = 12): 136.9 (25.53) L/h | AZD5718 CL/F, geometric mean (%CV) ([3]; 200 mg tablet, fed, n = 12): 134.4 (20.4) L/h | Effect of rosuvastatin coadministration on AZD5718 pharmacokinetics ([3]; AZD5718 200 mg tablet plus rosuvastatin 10 mg vs tablet alone): unaffected; also recorded: not affected | Between-participant variability (CV) of AUC0-inf and AUC0-last ([3]; AZD5718 tablets): < 25% | AUC(0-inf) [3, 12]: 5 µM·h | AUC(0-inf) [3, 13]: 3.62 µM·h | AUC(0-inf) [3, 14]: 3.4 µM·h | AUC(0-inf) [3, 15]: 4.89 µM·h | AUC(0-inf) [3, 16]: 3.56 µM·h | AUC(0-inf) [3, 17]: 3.33 µM·h | AUC(0-t) ([3]; 200 mg, arithmetic mean (SD), 200 mg suspension, fasted, n = 12): 4.75 µM·h | AUC(0-t) ([3]; 200 mg, arithmetic mean (SD), 200 mg tablet, fasted, n = 12): 3.49 µM·h | AUC(0-t) [3, 14]: 3.27 µM·h | half-life [3, 12]: 13.6 h | half-life [3, 13]: 14 h | half-life [3, 14]: 13.7 h | half-life [3, 15]: 13.2 h | half-life [3, 16]: 13.2 h | half-life [3, 17]: 13.5 h | Tmax ([3]; 200 mg, 200 mg suspension, fasted, n = 12): 1 h | Tmax ([3]; 200 mg, 200 mg tablet, fed, n = 12): 4 h | AUC(0-inf) [3, 18]: 3.67 µM·h | AUC(0-inf) [3, 19]: 3.59 µM·h | AUC(0-t) [3, 18]: 3.55 µM·h | half-life [3, 18]: 15 h | half-life [3, 19]: 13.9 h | Tmax [3, 11]: 2.01 h | Decrease in AZD5718 Cmax ([3]; immediate-release tablets relative to oral suspension): about 55% | AUC(0-t) [3, 20]: 4.65 µM·h | AUC(0-t) [3, 21]: 3.43 µM·h | AUC(0-t) [3, 22]: 3.21 µM·h | Cmax ([3]; male, 200 mg, arithmetic mean (SD), 200 mg suspension, fasted, n = 12): 1250 nM | Cmax ([3]; male, 200 mg, arithmetic mean (SD), 200 mg tablet, fasted, n = 12): 565 nM | Cmax ([3]; male, 200 mg, arithmetic mean (SD), 200 mg tablet, fed, n = 12): 427 nM | Cmax [3, 20]: 1170 nM | Cmax [3, 21]: 530 nM | Cmax [3, 22]: 409 nM | AUC(0-t) [3, 23]: 3.46 µM·h | Cmax ([3]; male, arithmetic mean (SD), 200 mg tablet plus rosuvastatin 10 mg, fasted, n = 12): 567 nM | Cmax [3, 23]: 545 nM | Decrease in AZD5718 Cmax [3, 24]: about 23% | Delay in AZD5718 tmax [3, 24]: about 1 hour | IC50 [4]: > 20 µM | Deaths, serious adverse events, adverse events leading to discontinuation ([5]; all 5 treatment periods, 12 healthy men): No deaths, serious adverse events, or adverse events leading to discontinuation occurred | Participants with any AE ([5]; human, in vivo): 6 (50.0) n (%) | Participants with dry skin ([5]; human, in vivo): 1 (8.3) n (%) | Participants with headache ([5]; human, in vivo): 2 (16.7) n (%) | Participants with hot flush ([5]; human, in vivo): 1 (8.3) n (%) | Participants with influenza-like illness ([5]; human, in vivo): 1 (8.3) n (%) | Participants with musculoskeletal pain ([5]; human, in vivo): 1 (8.3) n (%) | Participants with nasal congestion ([5]; human, in vivo): 1 (8.3) n (%) | Participants with nasopharyngitis ([5]; human, in vivo): 1 (8.3) n (%) | Participants with nausea ([5]; human, in vivo): 1 (8.3) n (%) | Participants with oropharyngeal pain ([5]; human, in vivo): 1 (8.3) n (%) | Participants with poor-quality sleep ([5]; human, in vivo): 1 (8.3) n (%) | IC50 [6]: > 20 µM | time to steady-state levels ([7]; oral suspension, multiple doses): about 3 days | tolerability ([7]; single oral doses 25-1200 mg and multiple doses 60-600 mg): well tolerated, with no identified safety concerns | enzymes involved in metabolism [8]: cytochrome P450 (CYP) 3A4 and CYP3A5 are involved in the metabolism | IC50 [9]: 0.039 µM

Source: publication PMC7187334 (Clinical Pharmacology in Drug Development, 2019)
